Experimental findings from patent US12448383B2, “Compounds and methods for treatment of viral infections” (priority 2022, dated 2025) are described below.

The subject of data set [1] is Respiratory syncytial virus recombinant with luciferase (RSV-Luc5) in HEp-2 cells. Kind of data set: microbe, parasite or virus in culture. Type of data set: cell-based. Conditions: human respiratory syncytial virus, HEp-2, read-out: EC50 RSVFluc-Hep2 384 V2.
For data set [2], the system named is Respiratory syncytial virus recombinant with luciferase (RSV-Luc5) in Normal Human Bronchial Epithelial (NHBE) cells. Kind of data set: microbe, parasite or virus in culture. It is filed as cell-based. The following applies: read-out: EC50 RSVFluc-NHBE 384 V2.
Data set [3] is described as follows: CC50 MT4 cytotoxicity (Cell-Titer Glo). Type of data set: cell-based. The following applies: human. The procedure, abridged: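 CC50 values are the concentrations cutting viability by 50%, fitted by non-linear regression against untreated (100%) and 2 μM puromycin (0%) controls. Cell-Titer Glo luminescence measured after 4-5 days at 37° C exposure of uninfected MT-4 and HEp-2 cells to 3-fold dilutions spanning 15 nM to 100,000 nM.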

Data set [4] has as its system SARS Coronavirus 2 recombinant with NanoLuc (SARS-CoV2-NLuc) in A549-hACE2 cells. Briefly: microbe, parasite or virus in culture. The following applies: A549; read-out: EC50 SARS CoV2 NanoLuc A549 384. Type of data set: cell-based.
Data set [5] in a line: GI S9 stability - no PMSF. Type of data set: in vitro ADME. The following applies: pH 7.4; human intestinal S9, PMSF-free; read-out: GIS9-HUMAN-NoPMSF T1/2. The method, boiled down: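 Stability was assessed by Q-Exactive LC-MS peak area ratios against internal standard, tracking loss of parent and appearance of nucleoside metabolite Reference Compound A. Incubations used 2 μM compound in 1 mg/mL intestinal S9 without PMSF (PBS, pH 7.4), with six samples taken over 120 min.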

A further data set is described as follows: Plasma stability. Conditions: 37° C., 2 μM substrate. On the set-up: unit not given here. Type of data set: in vitro ADME. The procedure, abridged:
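LC-MS (Q-Exactive, 5 ppm tolerance, 0.1% formic acid water/acetonitrile gradient) quantified compound in quenched aliquots. Aliquots were taken at 0.05, 0.5, 1, 2, 3 and 4 hr and quenched with internal-standard solution, and supernatants were diluted with water after centrifugation.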

Data set [6] concerns Caco-2 cells (clone C2BBe1). Kind of data set: CACO-2 permeability. Type of data set: in vitro ADME. Set-up: unit not given here. Conditions: for DM Caco2 A to B: apical to basolateral, donor pH 6.5, receiver pH 7.4; for DM Caco2 B to A: basolateral to apical. The method, boiled down:
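A-to-B and B-to-A flux measured by LC-MS/MS from receiver samples taken at 1 and 2 h, with donor sampled at 0 and 2 h and recovery checked. Buffers: pH 6.5 HBSS with 200 μM BNPP on the donor side, pH 7.4 with BSA on the receiver side. Monolayers were 21-day cultures, TEER-verified, in duplicate wells.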
A general note: Passage across Caco-2 layers is used to estimate intestinal permeability.

Broadly, the EC50 is the concentration at which the effect is half-maximal. One may read the CC50 as the concentration that lowers cell viability or growth by half. Usually logD stands for the decadic logarithm of the distribution of all forms, ionised or not, between an organic phase and buffer at a given pH. For `N#C[C@@]1(c2ccc3c(N)ncnn23)O[C@H](COC(=O)OCOP(=O)(O)O)[C@@H](O)[C@H]1O` [Compound 40, ((2R,3S,4R,5R)-5-(4-aminopyrrolo[2,1-f][1,2,4]triazin-7-yl)-5-cyano-3,4-dihydroaytetrahydrofuran-2-yl)methyl ((phosphonooxy)methyl) carbonate], the EC50 in data set [1] was 3.55 µM; in data set [2], 3.69 µM. The compound further displayed a CC50 in data set [3] of over 50 µM. The compound further came in with a logD in “physchem” of under 0.3.
In the case of `COC(=O)Nc1ncnn2c([C@]3(C#N)O[C@H](COC(=O)OCC(C)(C)C)[C@@H](OC(=O)OC)[C@H]3OC(=O)OC)ccc12` [Compound 103, methyl (7-((2R,3R,4R,5R)-2-cyano-3,4-bis((methoxycarbonyl)oxy)-5-((((neopentyloxy)carbonyl)oxy)methyl)tetrahydrofuran-2-yl)pyrrolo[2,1-f][1,2,4]triazin-4-yl)carbamate], the EC50 is 20.7 µM in data set [1], over 50 µM in data set [4] and 17.7 µM in data set [2]. The compound further registered a CC50 in data set [3] of over 50 µM. Further, the logD in “physchem” was 3.2.
In the case of `COC1O[C@H]2[C@@H](O1)[C@](C#N)(c1ccc3c(N)ncnn13)O[C@@H]2COC(=O)OC(C)C` (stereo partly drawn) [Compound 107, ((3aR,4R,6R,6aR)-6-(4-aminopyrrolo[2,1-f][1,2,4]triazin-7-yl)-6-cyano-2-methoxytetrahydrofuro[3,4-d][1,3]dioxol-4-yl)methyl isopropyl carbonate], the EC50 in data set [1], in data set [4] and in data set [2] was over 50 µM in each case. Besides, the CC50 in data set [3] was over 50 µM. This compound had a logD in the data set “physchem” of 2.5.
Take `CC(C)(C)OP(=O)(OCOC(=O)OC[C@H]1O[C@@](C#N)(c2ccc3c(N)ncnn23)[C@H](O)[C@@H]1O)OC(C)(C)C` [Compound 110, ((2R,3S,4R,5R)-5-(4-aminopyrrolo[2,1-f][1,2,4]triazin-7-yl)-5-cyano-3,4-dihydroxytetrahydrofuran-2-yl)methyl (((di-tert-butoxyphosphoryl)oxy)methyl) carbonate]: the figures for the EC50 in data set [1] and in data set [2] were 10.8 µM and 20.4 µM, respectively. Further, the CC50 in data set [3] was over 50 µM. Moreover, the logD in “physchem” came to 1.7.
For the compound `COc1ccc(CCOC(=O)OC[C@H]2O[C@@](C#N)(c3ccc4c(N)ncnn34)[C@H](O)[C@@H]2O)cc1` [Compound 112, ((2R,3S,4R,5R)-5-(4-aminopyrrolo[2,1-f][1,2,4]triazin-7-yl)-5-cyano-3,4-dihydroxytetrahydrofuran-2-yl)methyl (4-methoxyphenethyl) carbonate], the EC50 in data set [1] is 0.181 µM; in data set [4], 2.11 µM; in data set [2] it was 0.454 µM. Moreover, the CC50 in data set [3] was over 50 µM. Further, the half-life at 2 µM in data set [5] came out at 106 s. Moreover, the “STA Human Plasma 37” value in the data set “Plasma stability” turned out to be 28.8. Moreover, the “DM Caco2 A to B” value in data set [6] turned out to be 2.53. For the same compound, in data set [6], the “DM Caco2 B to A” value amounted to 15.81. Besides, in “physchem”, the logD was found to be 1.8.
Consider `CC1(COC(=O)OC[C@H]2O[C@@](C#N)(c3ccc4c(N)ncnn34)[C@H](O)[C@@H]2O)CC1` [Compound 114, ((2R,3S,4R,5R)-5-(4-aminopyrrolo[2,1-f][1,2,4]triazin-7-yl)-5-cyano-3,4-dihydroxytetrahydrofuran-2-yl)methyl ((1-methylcyclopropyl)methyl) carbonate], for which the EC50 in data set [1] is 0.123 µM; in data set [4], 1.12 µM; in data set [2], 0.966 µM. This compound yielded a cytotoxic concentration (CC50) in data set [3] of over 50 µM. Besides, the half-life at 2 µM in data set [5] was found to be 72.7 s. Also, the “STA Human Plasma 37” value in the data set “Plasma stability” was found to be 26.8. In data set [6], the “DM Caco2 A to B” value was found to be 2.07. For the same compound, in data set [6], the “DM Caco2 B to A” value worked out at 11.26. This compound also registered a logD in “physchem” of 1.5.
As for `N#C[C@@]1(c2ccc3c(N)ncnn23)O[C@H](COC(=O)OCC2CC(F)(F)C2)[C@@H](O)[C@H]1O` [Compound 115, ((2R,3S,4R,5R)-5-(4-aminopyrrolo[2,1-f][1,2,4]triazin-7-yl)-5-cyano-3,4-dihydroxytetrahydrofuran-2-yl)methyl ((3,3-difluorocyclobutyl)methyl) carbonate], the EC50 stood at 0.228 µM in data set [1], 1.76 µM in data set [4] and 0.99 µM in data set [2]. For the same compound, the CC50 in data set [3] is over 50 µM. Also, the half-life at 2 µM in data set [5] stood at 34.9 s. Besides, in “Plasma stability”, the “STA Human Plasma 37” value amounted to 41.2. Moreover, the “DM Caco2 A to B” value in data set [6] is 0.91. The “DM Caco2 B to A” value in data set [6] was determined as 8.32. In the data set “physchem”, this compound yielded a pH-dependent lipophilicity (logD) of 1.4.
In the case of `N#C[C@@]1(c2ccc3c(N)ncnn23)O[C@H](COC(=O)OCC2(c3ccccc3)CC2)[C@@H](O)[C@H]1O` [Compound 116, ((2R,3S,4R,5R)-5-(4-aminopyrrolo[2,1-f][1,2,4]triazin-7-yl)-5-cyano-3,4-dihydroxytetrahydrofuran-2-yl)methyl ((1-phenylcyclopropyl)methyl) carbonate], the EC50 in data set [1] amounted to 0.321 µM; in data set [4], 0.822 µM; in data set [2] it was 0.864 µM. The same compound had a CC50 in data set [3] of over 50 µM. The half-life at 2 µM in data set [5] turned out to be 37.8 s. Further, the “STA Human Plasma 37” value in “Plasma stability” was 26.4. Besides, the “DM Caco2 A to B” value in data set [6] is listed as 4.18. Besides, the “DM Caco2 B to A” value in data set [6] amounted to 17.53. The compound further displayed a logD in “physchem” of 2.1.
For `CC1(C)CC(COC(=O)OC[C@H]2O[C@@](C#N)(c3ccc4c(N)ncnn34)[C@H](O)[C@@H]2O)C1` [Compound 117, ((2R,3S,4R,5R)-5-(4-aminopyrrolo[2,1-f][1,2,4]triazin-7-yl)-5-cyano-3,4-dihydroxytetrahydrofuran-2-yl)methyl ((3,3-dimethylcyclobutyl)methyl) carbonate], the half-maximal effective concentration (EC50) was 0.494 µM in data set [1], 0.778 µM in data set [4] and 1.38 µM in data set [2]. Besides, the CC50 in data set [3] is over 50 µM. The half-life at 2 µM in data set [5] was 37 s. The “STA Human Plasma 37” value in “Plasma stability” was 86. For the same compound, the “DM Caco2 A to B” value in data set [6] was determined as 6.18. Also, in data set [6], the “DM Caco2 B to A” value is on record as 10.53. Further, the logD in the data set “physchem” came to 2.3.
Consider `N#CC1(COC(=O)OC[C@H]2O[C@@](C#N)(c3ccc4c(N)ncnn34)[C@H](O)[C@@H]2O)CC1` [Compound 118, ((2R,3S,4R,5R)-5-(4-aminopyrrolo[2,1-f][1,2,4]triazin-7-yl)-5-cyano-3,4-dihydroxytetrahydrofuran-2-yl)methyl ((l-cyanocyclopropyl)methyl) carbonate], for which the EC50 came out at 1.76 µM in data set [1], 6.8 µM in data set [4] and 1.82 µM in data set [2]. Besides, the CC50 in data set [3] was over 50 µM. Besides, the half-life at 2 µM in data set [5] is 247 s. Further, in “Plasma stability”, the “STA Human Plasma 37” value was 59.4. In addition, the “DM Caco2 A to B” value in data set [6] amounted to 0.07. Further, in data set [6], the “DM Caco2 B to A” value is given as 1.67. In “physchem”, the logD was 0.7.
Regarding `N#CCC1(COC(=O)OC[C@H]2O[C@@](C#N)(c3ccc4c(N)ncnn34)[C@H](O)[C@@H]2O)CC1` [Compound 119, ((2R,3S,4R,5R)-5-(4-aminopyrrolo[2,1-f][1,2,4]triazin-7-yl)-5-cyano-3,4-dihydroxytetrahydrofuran-2-yl)methyl ((1-(cyanomethyl)cyclopropyl)methyl) carbonate], the 50% effective concentration (EC50) in data set [1] came out at 2.2 µM; in data set [4], 8.82 µM; in data set [2], 2.19 µM. The CC50 in data set [3] is over 50 µM. Also, the half-life at 2 µM in data set [5] was 179 s. Further, the “STA Human Plasma 37” value in the data set “Plasma stability” amounted to 40.7. Further, in data set [6], the “DM Caco2 A to B” value worked out at 0.07. Moreover, the “DM Caco2 B to A” value in data set [6] was determined as 1.91. The logD in “physchem” stood at 0.9.
As to `CC1(COC(=O)OC[C@H]2O[C@@](C#N)(c3ccc4c(N)ncnn34)[C@H](O)[C@@H]2O)CCC1` [Compound 122, ((2R,3S,4R,5R)-5-(4-aminopyrrolo[2,1-f][1,2,4]triazin-7-yl)-5-cyano-3,4-dihydroxytetrahydrofuran-2-yl)methyl ((1-methylcyclobutyl)methyl) carbonate], the values for the EC50 in data set [1], in data set [4] and in data set [2] were 0.29 µM, 0.707 µM and 1.04 µM, respectively. This compound also returned a CC50 in data set [3] of over 50 µM. Moreover, in data set [5], the half-life at 2 µM turned out to be 38.2 s. Moreover, the “STA Human Plasma 37” value in “Plasma stability” came out at 34.1. The logD in “physchem” stood at 1.9.
With `N#C[C@@]1(c2ccc3c(N)ncnn23)O[C@H](COC(=O)OCC2CC2)[C@@H](O)[C@H]1O` [Compound 125, ((2R,3S,4R,5R)-5-(4-aminopyrrolo[2,1-f][1,2,4]triazin-7-yl)-5-cyano-3,4-dihydroxytetrahydrofuran-2-yl)methyl (cyclopropylmethyl) carbonate], the EC50 in data set [1] worked out at 0.22 µM; in data set [4], 1.79 µM; in data set [2], 0.645 µM. The compound also displayed a 50% cytotoxic concentration (CC50) in data set [3] of over 50 µM. Besides, the half-life at 2 µM in data set [5] was 34.9 s. Also, in “Plasma stability”, the “STA Human Plasma 37” value turned out to be 12.2. In the data set “physchem”, this compound displayed a logD of 1.1.
